Values after ≈ are worked out from the molar mass of the structure shown.
Experiments:
[1] = Additional solubility studies in 100 mM phosphate buffer (HPLC); type: physicochemical; conditions: pH 7.3, aqueous buffer, thermodynamic from solid, pH 7.30, pH after 18 h slurry 7.31, ambient temperature
Description: Each determination was carried out in duplicate, slurrying each sample in a 100 mM phosphate buffer solution, pH 7.00. […] After this time all samples were centrifuged, and the supernatant was diluted with mobile phase (MeCN/Water.).

[2] = Moisture sorption analysis; type: physicochemical; conditions: for Hysteresis upon desorption / hydrate formation: desorption scan
Description: Moisture Sorption Analysis was performed with a Hiden IGAsorp Moisture Sorption Instrument. Samples were first dried at 0% relative humidity at 25° C. until an equilibrium weight was reached, or for a maximum of 4 hours. Samples were then subjected to an isothermal (25° C.) scan from 10-90% relative humidity in steps of 10%. The samples were allowed to equilibrate to an asymptotic weight at each point for a maximum of 4 hours. Following absorption, a desorption scan from 85% relative humidity (at 25° C.) was run in steps of −10%, again allowing a maximum of 4 hours for the samples to equilibrate. The resulting samples after desorption were dried at 80° C. for two hours and analyzed by XRPD.

[3] = Form conversion and degradation under thermal stress; conditions: 60° C., closed, protected from light, 7 and 14 days
Description: Studies were also conducted to evaluate the likelihood for conversion and degradation under thermal stress.

[4] = Slurry studies (inter-conversion of the solid form); conditions: room temperature, no light, water, isopropyl alcohol, dichloromethane and toluene, 14 days
Description: Slurry experiments were performed on each form to determine propensity for conversion and to see if a unique form could be generated.

## CC1=NS(=O)(=O)c2cc(Cl)ccc2N1 [free form diazoxide, 7-chloro-3-methyl-2H-1,2,4-benzothiadiazine 1, 1 dioxide, reference compound]
[1]
  solubility at 18 h: 70 µg/mL (≈ 303 µM)
[2]; 25° C.
  Hysteresis upon desorption / hydrate formation: does not form a stable hydrate
[2]; 25° C., listed as Free form
  Hysteresis upon desorption / hydrate formation: no hysteresis
[2]; 25° C., relative humidity scan
  Moisture sorption: hygroscopicity: non-hygroscopic
[2]; 25° C., 60% RH
  Water absorbed at 60% RH: approximately 0.04 wt %
[2]; 25° C., 90% RH
  Water absorbed at 90% RH: ~0.20 wt %
[2]; after moisture sorption experiment
  XRPD pattern following the moisture sorption/desorption analysis: same crystalline form
[3]
  Form conversion and degradation under thermal stress (XRPD, DSC): no conversion or degradation
[4]
  Slurry study: conversion of solid form: did not convert to alternate crystal forms

— patent publication US10085998B2, “Salts of potassium ATP channel openers and uses thereof” (Essentialis, Inc., priority 2006, dated 2018)
